# According to patent US4245106A, “Process for the preparation of 1-alkyl-3-aryl-4-pyrazolecarboxylates” (Monsanto Company, priority 1979, dated 1981):
# Tests used:
# Format in all cases: in vivo
# [1] = test system: Quackgrass; test: post-emergent herbicidal activity test
# Experimental: (§1) The post-emergent tests were conducted as follows. The active ingredients are applied in spray form to two or three-week old specimens of various plant species. The spray, a solution or wettable powder suspension containing the appropriate rate of active ingredient to give the desired test rate and a surfactant, is applied to the plants. The treated plants are placed in a greenhouse and unless otherwise noted approximately four weeks later the effects are observed and recorded.
# [2] = test system: Johnsongrass; test: post-emergent herbicidal activity test
# Experimental: as §1
# [3] = test system: Morningglory; test: post-emergent herbicidal activity test
# Experimental: as §1
# [4] = test system: Smartweed; test: post-emergent herbicidal activity test
# Experimental: as §1
# [5] = test system: Barnyard grass; test: post-emergent herbicidal activity test
# Experimental: as §1
# [6] = test system: Lambsquarter; test: post-emergent herbicidal activity test
# Experimental: as §1
# [7] = test system: Nutsedge; test: post-emergent herbicidal activity test
# Experimental: as §1
# [8] = test system: Canada Thistle; test: post-emergent herbicidal activity test
# Experimental: as §1
# [9] = test system: Cocklebur; test: post-emergent herbicidal activity test
# Experimental: as §1
# [10] = test system: Bromus tectorum; test: post-emergent herbicidal activity test
# Experimental: as §1
# [11] = test system: Velvetleaf; test: post-emergent herbicidal activity test
# Experimental: as §1
# [12] = test system: Quackgrass; test: pre-emergent herbicidal activity test
# Experimental: (§2) Table II summarizes results of tests conducted to determine the pre-emergent as well as the post-emergent herbicidal activity of the compounds. The pre-emergent test was conducted as follows:
# (§3) A good grade of top soil was placed in aluminum pans and compacted to a depth of three-eighths to one-half inch from the top of the pan. On the top of the soil was placed a predetermined number of seeds or vegetative propagules of various plant species. The soil required to level fill the pans after seeding or adding vegetative propagules was weighed into a pan. A known amount of the active ingredient applied in a solvent or as a wettable powder and the soil were thoroughly mixed, and used as a cover layer for prepared pans. After treatment the pans were moved into a greenhouse bench where they were watered from below as needed to give adequate moisture for germination and growth.
# (§4) A herbicial rating code was used to signify the extent of phytotoxicity of each species. The rating are defined as follows: […]
# [13] = test system: Johnsongrass; test: pre-emergent herbicidal activity test
# Experimental: as §2, §3, §4
# [14] = test system: Morningglory; test: pre-emergent herbicidal activity test
# Experimental: as §2, §3, §4
# [15] = test system: Smartweed; test: pre-emergent herbicidal activity test
# Experimental: as §2, §3, §4
# [16] = test system: Barnyard grass; test: pre-emergent herbicidal activity test
# Experimental: as §2, §3, §4
# [17] = test system: Lambsquarter; test: pre-emergent herbicidal activity test
# Experimental: as §2, §3, §4
# [18] = test system: Nutsedge; test: pre-emergent herbicidal activity test
# Experimental: as §2, §3, §4
# [19] = test system: Canada Thistle; test: pre-emergent herbicidal activity test
# Experimental: as §2, §3, §4
# [20] = test system: Cocklebur; test: pre-emergent herbicidal activity test
# Experimental: as §2, §3, §4
# [21] = test system: Bromus tectorum; test: pre-emergent herbicidal activity test
# Experimental: as §2, §3, §4
# [22] = test system: Velvetleaf; test: pre-emergent herbicidal activity test
# Experimental: as §2, §3, §4
# [23] = 11.2 Kg/Ha, approximately four weeks later
# [24] = *11.2 Kg/Ha, observed approximately 14 days after treatment
# [25] = 11.2 Kg/Ha, approximately 28 days after seeding and treating
# Note: ranges in brackets are in %.
smiles,measurement,setting,value
CCOC(=O)c1cn(C)nc1-c1cccc(C(F)(F)F)c1 [Example 12],"Post-Emergent herbicidal rating, H Quackgrass",[1]; [23],0 (0-24)
same,"Post-Emergent herbicidal rating, H Quackgrass",[1]; [24],0 (0-24)
same,"Post-Emergent herbicidal rating, I Johnsongrass",[2]; [23],0 (0-24)
same,"Post-Emergent herbicidal rating, I Johnsongrass",[2]; [24],0 (0-24)
same,"Post-Emergent herbicidal rating, D Morningglory",[3]; [23],2 (50-74)
same,"Post-Emergent herbicidal rating, D Morningglory",[3]; [24],3 (75-99)
same,"Post-Emergent herbicidal rating, F Smartweed",[4]; [23],1 (25-49)
same,"Post-Emergent herbicidal rating, F Smartweed",[4]; [24],0 (0-24)
same,"Post-Emergent herbicidal rating, K Barnyard grass",[5]; [23],0 (0-24)
same,"Post-Emergent herbicidal rating, K Barnyard grass",[5]; [24],1 (25-49)
same,"Post-Emergent herbicidal rating, E Lambsquarter",[6]; [23],1 (25-49)
same,"Post-Emergent herbicidal rating, E Lambsquarter",[6]; [24],2 (50-74)
same,"Post-Emergent herbicidal rating, G Nutsedge",[7]; [23],0 (0-24)
same,"Post-Emergent herbicidal rating, G Nutsedge",[7]; [24],0 (0-24)
same,"Post-Emergent herbicidal rating, A Canada Thistle",[8]; [23],1 (25-49)
same,"Post-Emergent herbicidal rating, A Canada Thistle",[8]; [24],1 (25-49)
same,"Post-Emergent herbicidal rating, B Cocklebur",[9]; [23],1 (25-49)
same,"Post-Emergent herbicidal rating, B Cocklebur",[9]; [24],1 (25-49)
same,"Post-Emergent herbicidal rating, J Bromus tectorum",[10]; [23],0 (0-24)
same,"Post-Emergent herbicidal rating, J Bromus tectorum",[10]; [24],0 (0-24)
same,"Post-Emergent herbicidal rating, C Velvetleaf",[11]; [23],1 (25-49)
same,"Post-Emergent herbicidal rating, C Velvetleaf",[11]; [24],1 (25-49)
same,"Pre-Emergent herbicidal rating, H Quackgrass",[12]; [25],0 (0-24)
same,"Pre-Emergent herbicidal rating, H Quackgrass",[12]; [24],0 (0-24)
same,"Pre-Emergent herbicidal rating, I Johnsongrass",[13]; [25],0 (0-24)
same,"Pre-Emergent herbicidal rating, I Johnsongrass",[13]; [24],0 (0-24)
same,"Pre-Emergent herbicidal rating, D Morningglory",[14]; [25],3 (75-100)
same,"Pre-Emergent herbicidal rating, D Morningglory",[14]; [24],3 (75-100)
same,"Pre-Emergent herbicidal rating, F Smartweed",[15]; [25],3 (75-100)
same,"Pre-Emergent herbicidal rating, F Smartweed",[15]; [24],3 (75-100)
same,"Pre-Emergent herbicidal rating, K Barnyard grass",[16]; [25],3 (75-100)
same,"Pre-Emergent herbicidal rating, K Barnyard grass",[16]; [24],3 (75-100)
same,"Pre-Emergent herbicidal rating, E Lambsquarter",[17]; [25],3 (75-100)
same,"Pre-Emergent herbicidal rating, E Lambsquarter",[17]; [24],3 (75-100)
same,"Pre-Emergent herbicidal rating, G Nutsedge",[18]; [25],0 (0-24)
same,"Pre-Emergent herbicidal rating, G Nutsedge",[18]; [24],0 (0-24)
same,"Pre-Emergent herbicidal rating, A Canada Thistle",[19]; [25],0 (0-24)
same,"Pre-Emergent herbicidal rating, A Canada Thistle",[19]; [24],2 (50-74)
same,"Pre-Emergent herbicidal rating, B Cocklebur",[20]; [25],0 (0-24)
same,"Pre-Emergent herbicidal rating, B Cocklebur",[20]; [24],0 (0-24)
same,"Pre-Emergent herbicidal rating, J Bromus tectorum",[21]; [25],1 (25-49)
same,"Pre-Emergent herbicidal rating, J Bromus tectorum",[21]; [24],2 (50-74)
same,"Pre-Emergent herbicidal rating, C Velvetleaf",[22]; [25],3 (75-100)
same,"Pre-Emergent herbicidal rating, C Velvetleaf",[22]; [24],3 (75-100)
CCOC(=O)c1cn(CC)nc1-c1cccc(C(F)(F)F)c1 [Example 1],"Post-Emergent herbicidal rating, H Quackgrass",[1]; [23],0 (0-24)
same,"Post-Emergent herbicidal rating, H Quackgrass",[1]; [24],1 (25-49)
same,"Post-Emergent herbicidal rating, I Johnsongrass",[2]; [23],0 (0-24)
same,"Post-Emergent herbicidal rating, I Johnsongrass",[2]; [24],1 (25-49)
same,"Post-Emergent herbicidal rating, D Morningglory",[3]; [23],1 (25-49)
same,"Post-Emergent herbicidal rating, D Morningglory",[3]; [24],1 (25-49)
same,"Post-Emergent herbicidal rating, F Smartweed",[4]; [23],0 (0-24)
same,"Post-Emergent herbicidal rating, F Smartweed",[4]; [24],1 (25-49)
same,"Post-Emergent herbicidal rating, K Barnyard grass",[5]; [23],0 (0-24)
same,"Post-Emergent herbicidal rating, K Barnyard grass",[5]; [24],1 (25-49)
same,"Post-Emergent herbicidal rating, E Lambsquarter",[6]; [23],1 (25-49)
same,"Post-Emergent herbicidal rating, E Lambsquarter",[6]; [24],1 (25-49)
same,"Post-Emergent herbicidal rating, G Nutsedge",[7]; [23],0 (0-24)
same,"Post-Emergent herbicidal rating, G Nutsedge",[7]; [24],1 (25-49)
same,"Post-Emergent herbicidal rating, A Canada Thistle",[8]; [23],1 (25-49)
same,"Post-Emergent herbicidal rating, A Canada Thistle",[8]; [24],1 (25-49)
same,"Post-Emergent herbicidal rating, B Cocklebur",[9]; [23],1 (25-49)
same,"Post-Emergent herbicidal rating, B Cocklebur",[9]; [24],1 (25-49)
same,"Post-Emergent herbicidal rating, J Bromus tectorum",[10]; [23],0 (0-24)
same,"Post-Emergent herbicidal rating, J Bromus tectorum",[10]; [24],1 (25-49)
same,"Post-Emergent herbicidal rating, C Velvetleaf",[11]; [23],1 (25-49)
same,"Post-Emergent herbicidal rating, C Velvetleaf",[11]; [24],1 (25-49)
same,"Pre-Emergent herbicidal rating, H Quackgrass",[12]; [25],0 (0-24)
same,"Pre-Emergent herbicidal rating, H Quackgrass",[12]; [24],1 (25-49)
same,"Pre-Emergent herbicidal rating, I Johnsongrass",[13]; [25],0 (0-24)
same,"Pre-Emergent herbicidal rating, I Johnsongrass",[13]; [24],0 (0-24)
same,"Pre-Emergent herbicidal rating, D Morningglory",[14]; [25],0 (0-24)
same,"Pre-Emergent herbicidal rating, D Morningglory",[14]; [24],2 (50-74)
same,"Pre-Emergent herbicidal rating, F Smartweed",[15]; [25],1 (25-49)
same,"Pre-Emergent herbicidal rating, F Smartweed",[15]; [24],3 (75-100)
same,"Pre-Emergent herbicidal rating, K Barnyard grass",[16]; [25],3 (75-100)
same,"Pre-Emergent herbicidal rating, K Barnyard grass",[16]; [24],3 (75-100)
same,"Pre-Emergent herbicidal rating, E Lambsquarter",[17]; [25],3 (75-100)
same,"Pre-Emergent herbicidal rating, E Lambsquarter",[17]; [24],3 (75-100)
same,"Pre-Emergent herbicidal rating, G Nutsedge",[18]; [25],0 (0-24)
same,"Pre-Emergent herbicidal rating, G Nutsedge",[18]; [24],0 (0-24)
same,"Pre-Emergent herbicidal rating, A Canada Thistle",[19]; [25],1 (25-49)
same,"Pre-Emergent herbicidal rating, A Canada Thistle",[19]; [24],1 (25-49)
same,"Pre-Emergent herbicidal rating, B Cocklebur",[20]; [25],0 (0-24)
same,"Pre-Emergent herbicidal rating, B Cocklebur",[20]; [24],1 (25-49)
same,"Pre-Emergent herbicidal rating, J Bromus tectorum",[21]; [25],1 (25-49)
same,"Pre-Emergent herbicidal rating, J Bromus tectorum",[21]; [24],2 (50-74)
same,"Pre-Emergent herbicidal rating, C Velvetleaf",[22]; [25],3 (75-100)
same,"Pre-Emergent herbicidal rating, C Velvetleaf",[22]; [24],3 (75-100)
